Experimental data reported in US7285396B1, “Aβ-heme peroxidase” (Children's Hospital & Research Center at Oakland, priority 2006, dated 2007).

Experiments:
Aβ-heme peroxidase = biological target: T1, Aβ-heme peroxidase (Homo sapiens, UniProt P05067); assay: Inhibition of Aβ-heme peroxidase activity (TMB assay or HPLC); inhibitor screen; type: biochemical; conditions: for identified as inhibitor of Aβ-heme peroxidase activity in library screen: TMB assay; for peroxidase activity of Aβ-heme: TMB assay or HPLC
T1 construct: Amyloid-β (Aβ) peptide (American Peptide, Sunnyvale, Calif.) is dissolved in distilled deionized water; purchased American Peptide, Sunnyvale, Calif

[1] = test system: Tg2576 APPSw transgenic mouse; conditions: chronic dose of curcumin, APPSw mice; Lim 2001; cited from earlier work
[2] = test system: Tg2576 APPSw transgenic mouse; conditions: curcumin-treated Tg2576 APPSw mouse; Lim et al 2001; cited from earlier work
Aβ(1-40) = Aβ(1-40) (Homo sapiens, UniProt P05067); conditions: reference 13; cited from earlier work
Aβ(1-42) = Aβ(1-42) (Homo sapiens, UniProt P05067); conditions: reference 13; cited from earlier work
[3] = test system: human neuroblastoma (SHSY5Y) cells; assay: Effect of Aβ on heme synthesis in SHSY5Y cells; type: cell-based
Method: (§1) The effect of Aβ on heme synthesis was used to test the biological effect of the Aβ and heme interaction. We expected an increase in heme synthesis due to depletion of regulatory heme if the binding between heme and Aβ occurs in the cell. […] A 40% increase in heme synthesis was seen after 2 h incubation with 0.1 μM Aβ. A 4-fold and 13-fold increase in heme synthesis was seen after 1 h of incubation with 1 and 10 μM Aβ, respectively. A 2.5-fold and 18-fold increase in heme synthesis was seen after 2 h of incubation with 1 and 10 μM Aβ, respectively. An increase in the uptake of cofactors of heme biosynthesis is necessary to support heme synthesis. […] A 55% increase in iron was seen after 2 h of incubation with 0.1 μM Aβ. […] A 2-fold and 8-fold increase in iron uptake was seen after 2 h of incubation with 1 and 10 μM Aβ, respectively. The exposure of SHSY5Y cells to Aβ was not toxic as measured by trypan blue exclusion tests and compared with controls.

[4] = test system: human neuroblastoma (SHSY5Y) cells; assay: Effect of Aβ on intracellular iron / iron uptake in SHSY5Y cells; type: cell-based
SHSY5Y cells = type: cell-based, human
Method: as §1

T1 sequence (P05067 672-711 limits assumed): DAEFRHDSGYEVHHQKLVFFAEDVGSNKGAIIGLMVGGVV
Sequence of Aβ(1-40) (P05067 672-711 limits assumed): as above
Sequence of Aβ(1-42) (P05067 672-713 limits assumed): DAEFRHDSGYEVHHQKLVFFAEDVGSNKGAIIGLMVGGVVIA

Molecule: Cc1cc(N(C)C)cc2[s+]c3cc(N(C)C)cc(C)c3nc12 [1-9-dimethyl methylene blue]
- identified as inhibitor of Aβ-heme peroxidase activity in library screen (Aβ-heme peroxidase): inhibitors

Molecule: O=C(O)CCNO [N-(2-carboxyethyl)hydroxylamine]
- identified as inhibitor of Aβ-heme peroxidase activity in library screen (Aβ-heme peroxidase): inhibitors

Molecule: O=[N+]([O-])CCCNO [N-(3-nitropropyl)hydroxylamine]
- identified as inhibitor of Aβ-heme peroxidase activity in library screen (Aβ-heme peroxidase): inhibitors

Molecule: OCCCCNO [N-(4-hydroxybutyl)hydroxylamine]
- identified as inhibitor of Aβ-heme peroxidase activity in library screen (Aβ-heme peroxidase): inhibitors

Molecule: CC(=O)NO [N-(acetyl)hydroxylamine]
- identified as inhibitor of Aβ-heme peroxidase activity in library screen (Aβ-heme peroxidase): inhibitors

Molecule: O=C(CNO)Cc1ccccc1 [N-(benzylcarbonyl)methylhydroxylamine]
- identified as inhibitor of Aβ-heme peroxidase activity in library screen (Aβ-heme peroxidase): inhibitors

Molecule: ONCc1ccccc1 [N-benzylhydroxylamine (NBHA), N-benzylhydroxylamine]
- peroxidase activity of Aβ-heme (Aβ-heme peroxidase; 100 μM N-benzylhydroxylamine): significantly inhibited

Molecule: ONC1CCCCC1 [N-cyclohexylhydroxylamine]
- identified as inhibitor of Aβ-heme peroxidase activity in library screen (Aβ-heme peroxidase): inhibitors

Molecule: CC(C)NO [N-isopropylhydroxylamine]
- identified as inhibitor of Aβ-heme peroxidase activity in library screen (Aβ-heme peroxidase): inhibitors

Molecule: CC(C)(C)NO [N-tert-butylhydroxylamine]
- identified as inhibitor of Aβ-heme peroxidase activity in library screen (Aβ-heme peroxidase): inhibitors

Molecule: CN(C)c1ccc2nc3ccc(N)cc3[s+]c2c1.[Cl-] [azure A]
- identified as inhibitor of Aβ-heme peroxidase activity in library screen (Aβ-heme peroxidase): inhibitors

Molecule: CNc1ccc2nc3ccc(N)cc3[s+]c2c1.[Cl-] [azure C]
- identified as inhibitor of Aβ-heme peroxidase activity in library screen (Aβ-heme peroxidase): inhibitors

Molecule: COc1cc(/C=C/C(=O)CC(=O)/C=C/c2ccc(O)c(OC)c2)ccc1O [curcumin]
- insoluble Aβ [1]: significantly reduces
- soluble Aβ [1]: significantly reduces
- peroxidase activity of Aβ-heme (Aβ-heme peroxidase; 1 μM curcumin): significantly inhibited
- oxidative damage [2]: reduced oxidative damage

Molecule: C=CC1=C(C)c2cc3[n-]c(cc4[n-]c(cc5nc(cc1n2)C(C)=C5C=C)c(C)c4CCC(=O)O)c(CCC(=O)O)c3C.[Fe+2] [heme]
- aggregation of Aβ(1-40) (Aβ(1-40)): prevented aggregation
- aggregation of Aβ(1-42) (Aβ(1-42)): prevented aggregation

Molecule: CCNc1cc2[s+]c3cc(NCC)c(C)cc3nc2cc1C.[Cl-] [new methylene blue]
- identified as inhibitor of Aβ-heme peroxidase activity in library screen (Aβ-heme peroxidase): inhibitors

Molecule: Cc1cc2nc3ccc(N(C)C)cc3[s+]c2cc1N.[Cl-] [toluidine blue]
- identified as inhibitor of Aβ-heme peroxidase activity in library screen (Aβ-heme peroxidase): inhibitors

Molecule: Aβ: Amyloid-β (Aβ) peptide (American Peptide, Sunnyvale, Calif.)
- increase in heme synthesis ([3]; 0.1 μM Aβ, 2 h incubation): 40%
- increase in heme synthesis ([3]; 1 μM Aβ, 1 h incubation): 4 fold
- increase in heme synthesis ([3]; 1 μM Aβ, 2 h incubation): 2.5 fold
- increase in heme synthesis ([3]; 10 μM Aβ, 1 h incubation): 13 fold
- increase in heme synthesis ([3]; 10 μM Aβ, 2 h incubation): 18 fold
- synthesis of heme ([3]; Aβ 0.1, 1 and 10 μM): significantly increased
- increase in iron ([4]; 0.1 μM Aβ, 2 h incubation): 55%
- increase in iron uptake ([4]; 1 μM Aβ, 1 h incubation): 4 fold
- increase in iron uptake ([4]; 10 μM Aβ, 1 h incubation): 12.5 fold
- increase in iron uptake ([4]; 10 μM Aβ, 2 h incubation): 8 fold
- intracellular iron ([4]; Aβ 0.1, 1 and 10 μM): significantly increased
- toxicity by trypan blue exclusion (SHSY5Y cells): not toxic

Molecule: azure B
- identified as inhibitor of Aβ-heme peroxidase activity in library screen (Aβ-heme peroxidase): inhibitors

Molecule: coproporphyrin I
- identified as inhibitor of Aβ-heme peroxidase activity in library screen (Aβ-heme peroxidase): inhibitors

Molecule: coproporphyrin III
- identified as inhibitor of Aβ-heme peroxidase activity in library screen (Aβ-heme peroxidase): inhibitors

Molecule: uroporphyrin I
- identified as inhibitor of Aβ-heme peroxidase activity in library screen (Aβ-heme peroxidase): inhibitors

Molecule: uroporphyrin III
- identified as inhibitor of Aβ-heme peroxidase activity in library screen (Aβ-heme peroxidase): inhibitors
